± gives the expanded uncertainty stated by the source.
Test: xn = mol fraction of the nth substance listed
Details: for surface tension liquid-gas: Ring tensiometer; for mass density / viscosity: 100.8 kPa, Liquid

OCCc1ccccc1 [2-phenylethanol] + CC(C)O
Details	mass density, 298.15 K [kg/m3]	mass density, 308.15 K [kg/m3]	mass density, 318.15 K [kg/m3]	surface tension liquid-gas, 298.15 K [mN/m]	surface tension liquid-gas, 308.15 K [mN/m]	surface tension liquid-gas, 318.15 K [mN/m]	viscosity, 298.15 K [mPa·s]	viscosity, 308.15 K [mPa·s]	viscosity, 318.15 K [mPa·s]
x2 = 0	1016.2 ± 0.39	1008.63 ± 0.37	1000.98 ± 0.36	39.43 ± 0.58	38.93 ± 0.57	38.35 ± 0.56	11.4 ± 0.14	7.518 ± 0.098	5.232 ± 0.071
x2 = 0.05	1009.41 ± 0.36	1002.31 ± 0.35	994.22 ± 0.35	38.1 ± 0.56	37.7 ± 0.55	37.2 ± 0.55	10.66 ± 0.13	7.05 ± 0.092	4.953 ± 0.068
x2 = 0.1	1002.07 ± 0.34	994.92 ± 0.34	986.78 ± 0.35	36.9 ± 0.54	36.58 ± 0.54	36.13 ± 0.53	9.933 ± 0.13	6.594 ± 0.087	4.645 ± 0.064
x2 = 0.15	994.41 ± 0.33	986.76 ± 0.35	978.99 ± 0.36	35.8 ± 0.53	35.47 ± 0.52	35.05 ± 0.52	9.256 ± 0.12	6.148 ± 0.081	4.366 ± 0.059
x2 = 0.2	986.36 ± 0.34	978.65 ± 0.35	970.82 ± 0.37	34.7 ± 0.51	34.38 ± 0.51	33.97 ± 0.5	8.618 ± 0.11	5.726 ± 0.076	4.103 ± 0.056
x2 = 0.25	977.95 ± 0.35	970.19 ± 0.36	962.28 ± 0.37	33.63 ± 0.5	33.28 ± 0.49	32.88 ± 0.49	8 ± 0.1	5.341 ± 0.071	3.85 ± 0.052
x2 = 0.3	969.14 ± 0.35	961.31 ± 0.37	953.36 ± 0.38	32.61 ± 0.48	32.23 ± 0.48	31.8 ± 0.47	7.407 ± 0.095	4.969 ± 0.067	3.6 ± 0.049
x2 = 0.35	959.91 ± 0.36	952.04 ± 0.38	943.99 ± 0.39	31.6 ± 0.47	31.19 ± 0.46	30.75 ± 0.46	6.858 ± 0.088	4.621 ± 0.062	3.362 ± 0.046
x2 = 0.4	950.21 ± 0.37	942.3 ± 0.39	934.2 ± 0.4	30.6 ± 0.45	30.17 ± 0.45	29.7 ± 0.44	6.35 ± 0.082	4.286 ± 0.058	3.132 ± 0.042
x2 = 0.45	940.02 ± 0.39	932.05 ± 0.4	923.92 ± 0.42	29.6 ± 0.44	29.16 ± 0.43	28.68 ± 0.43	5.862 ± 0.076	3.964 ± 0.053	2.912 ± 0.04
x2 = 0.5	929.31 ± 0.4	921.29 ± 0.42	913.06 ± 0.44	28.62 ± 0.43	28.16 ± 0.42	27.68 ± 0.41	5.412 ± 0.071	3.67 ± 0.049	2.713 ± 0.037
x2 = 0.55	918.04 ± 0.42	909.98 ± 0.43	901.7 ± 0.45	27.65 ± 0.41	27.17 ± 0.41	26.68 ± 0.4	4.978 ± 0.066	3.389 ± 0.046	2.524 ± 0.034
x2 = 0.6	906.21 ± 0.43	898.08 ± 0.44	889.7 ± 0.46	26.7 ± 0.4	26.2 ± 0.39	25.7 ± 0.39	4.571 ± 0.061	3.124 ± 0.042	2.342 ± 0.032
x2 = 0.65	893.62 ± 0.44	885.47 ± 0.46	877.03 ± 0.48	25.8 ± 0.39	25.3 ± 0.38	24.83 ± 0.38	4.173 ± 0.055	2.876 ± 0.039	2.162 ± 0.029
x2 = 0.7	880.35 ± 0.46	872.12 ± 0.48	863.6 ± 0.49	24.98 ± 0.38	24.48 ± 0.37	24 ± 0.36	3.793 ± 0.05	2.634 ± 0.035	1.989 ± 0.027
x2 = 0.75	866.25 ± 0.48	857.98 ± 0.49	849.39 ± 0.51	24.2 ± 0.37	23.68 ± 0.36	23.2 ± 0.35	3.438 ± 0.046	2.407 ± 0.032	1.823 ± 0.025
x2 = 0.8	851.34 ± 0.5	842.99 ± 0.52	834.3 ± 0.53	23.45 ± 0.36	22.9 ± 0.35	22.45 ± 0.35	3.101 ± 0.041	2.201 ± 0.03	1.665 ± 0.023
x2 = 0.85	835.47 ± 0.52	827.04 ± 0.54	818.29 ± 0.56	22.75 ± 0.35	22.2 ± 0.34	21.7 ± 0.34	2.808 ± 0.037	2.009 ± 0.027	1.526 ± 0.021
x2 = 0.9	818.57 ± 0.55	810.09 ± 0.57	801.28 ± 0.58	22.1 ± 0.34	21.5 ± 0.33	20.97 ± 0.33	2.541 ± 0.034	1.859 ± 0.025	1.415 ± 0.019
x2 = 0.95	800.54 ± 0.58	792 ± 0.6	783.08 ± 0.61	21.5 ± 0.33	20.8 ± 0.32	20.18 ± 0.32	2.281 ± 0.031	1.693 ± 0.023	1.298 ± 0.018
